Measurements: ChEMBL document CHEMBL5137099, “Discovery of Novel cccDNA Reducers toward the Cure of Hepatitis B Virus Infection” (J Med Chem, 2022)

Tests used:
[1] = Elimination half life in C57BL/6 mouse at 5 mg/kg, po by LC-MS/MS analysis; format: ADME, organism-based; conditions: in vivo, read-out: beta t1/2 (converted)
[2] = Dose normalized AUC (0 to 24 hrs) in C3H/J mouse at 5 mg/kg, po by LC-MS/MS analysis; format: ADME, organism-based; conditions: in vivo
[3] = Metabolic stability in human microsomes assessed as clearance; format: ADME, Microsome; conditions: read-out: CLH
[4] = AUC (0 to infinity) in C57BL/6 mouse at 30 mg/kg, po by LC-MS/MS analysis; format: ADME, organism-based; parameters: time infinity, dose 30 mg/kg, route po; conditions: in vivo
[5] = Volume of distribution at steady state in C57BL/6 mouse at 2 mg/kg, iv by LC-MS/MS analysis; format: ADME, organism-based; conditions: in vivo, read-out: Vdss
[6] = AUC (0 to infinity) in C57BL/6 mouse at 5 mg/kg, po by LC-MS/MS analysis; format: ADME, organism-based; parameters: time infinity, dose 5 mg/kg, route po; conditions: in vivo
[7] = Aqueous solubility of the compound; format: physicochemical; conditions: buffer
[8] = Dose normalized AUC (0 to 24 hrs) in C57BL/6 mouse at 2 mg/kg, iv by LC-MS/MS analysis; format: ADME, organism-based; conditions: in vivo
Hepatitis B virus [9] = test: Antiviral activity against HBV infected in human HepG2 cells assessed as reduction in HBeAg secretion incubated for 5 days by counter screen assay; format: functional, organism-based; conditions: HepG2, 120 h
[10] = Permeability of the compound by PAMPA analysis; format: ADME; conditions: read-out: permeability
[11] = Clearance in C57BL/6 mouse at 2 mg/kg, iv by LC-MS/MS analysis; format: ADME, organism-based; conditions: in vivo
[12] = Dose normalized AUC (0 to 24 hrs) in C57BL/6 mouse at 30 mg/kg, po by LC-MS/MS analysis; format: ADME, organism-based; conditions: in vivo
[13] = Dose normalized AUC (0 to 24 hrs) in C57BL/6 mouse at 5 mg/kg, po by LC-MS/MS analysis; format: ADME, organism-based; conditions: in vivo
[14] = AUC (0 to infinity) in C57BL/6 mouse at 2 mg/kg, iv by LC-MS/MS analysis; format: ADME, organism-based; parameters: time infinity, dose 2 mg/kg, route iv; conditions: in vivo
Hepatitis B virus [15] = test: Antiviral activity against HBV infected in human primary hepatocyte cells assessed as reduction in HBV cccDNA production by measuring inhibition of HBsAg secretion measured after 48 hrs by ELISA; format: functional, organism-based
[16] = Octanol-aqueous buffer distribution coefficient, log D of the compound at pH 7.4 by CAMDIS assay; format: physicochemical
[17] = Tmax in C3H/J mouse plasma at 5 mg/kg, po by LC-MS/MS analysis; format: ADME, organism-based
[18] = Cmax in C3H/J mouse plasma at 5 mg/kg, po by LC-MS/MS analysis; format: ADME, organism-based; parameters: dose 5 mg/kg, route po
[19] = Oral bioavailability in C57BL/6 mouse at 5 mg/kg by LC-MS/MS analysis; format: ADME, organism-based; conditions: in vivo
[20] = Elimination half life in C3H/J mouse at 5 mg/kg, po by LC-MS/MS analysis; format: ADME, organism-based; conditions: in vivo, read-out: beta t1/2 (converted)
Hepatitis B virus [21] = test: Antiviral activity against HBV infected in human HepDES19 cells assessed as reduction in HBV cccDNA production by measuring inhibition of HBeAg secretion incubated for 5 days by ELISA; format: functional, organism-based; conditions: HepDES19, 120 h
[22] = Cmax in C57BL/6 mouse at 30 mg/kg, po by LC-MS/MS analysis; format: ADME, organism-based; parameters: dose 30 mg/kg, route po; conditions: in vivo
[23] = Elimination half life in C57BL/6 mouse at 30 mg/kg, po by LC-MS/MS analysis; format: ADME, organism-based; conditions: in vivo, read-out: beta t1/2 (converted)
[24] = Elimination half life in C57BL/6 mouse at 2 mg/kg, iv by LC-MS/MS analysis; format: ADME, organism-based; conditions: in vivo, read-out: beta t1/2 (converted)
[25] = Cmax in C57BL/6 mouse at 5 mg/kg, po by LC-MS/MS analysis; format: ADME, organism-based; parameters: dose 5 mg/kg, route po; conditions: in vivo
[26] = Tmax in C57BL/6 mouse at 5 mg/kg, po by LC-MS/MS analysis; format: ADME, organism-based; conditions: in vivo
[27] = Dose normalized Cmax in C57BL/6 mouse at 5 mg/kg, po by LC-MS/MS analysis; format: ADME, organism-based; conditions: in vivo
[28] = Tmax in C57BL/6 mouse at 30 mg/kg, po by LC-MS/MS analysis; format: ADME, organism-based; conditions: in vivo
[29] = Metabolic stability in mouse hepatocytes assessed as intrinsic clearance; format: ADME, cell-based, Hepatocyte; conditions: read-out: CLH
[30] = Dose normalized Cmax in C3H/J mouse at 5 mg/kg, po by LC-MS/MS analysis; format: ADME, organism-based; conditions: in vivo
[31] = AUC (0 to infinity) in C3H/J mouse at 5 mg/kg, po by LC-MS/MS analysis; format: ADME, organism-based; parameters: time infinity, dose 5 mg/kg, route po; conditions: in vivo

half-life [1]: 10.2 h
AUC/dose [2]: 171 (ng·h/mL)/(mg/kg)
CLint scaled [3]: 6.2 mL/min/kg
AUC(0-inf) [4]: 31400 ng·h/mL
Vd [5]: 0.65 L/kg
AUC(0-inf) [6]: 2680 ng·h/mL
solubility [7]: < 435 µg/mL
AUC/dose [8]: 937 (ng·h/mL)/(mg/kg)
Papp [10]: 2.27 ×10⁻⁶ cm/s
clearance [11]: 17.6 mL/min/kg
AUC/dose [12]: 151 ng·h/mL
AUC/dose [13]: 500 ng·h/mL
AUC(0-inf) [14]: 1900 ng·h/mL
logD [16]: 1.12
Tmax [17]: 0.5 h
Cmax [18]: 580 ng/mL
bioavailability [19]: 56%
half-life [20]: 1.11 h
IC50 (Hepatitis B virus [21]): 1740 nM
Cmax [22]: 17300 ng/mL
half-life [23]: 4.26 h
half-life [24]: 2.1 h
Cmax [25]: 1650 ng/mL
Tmax [26]: 0.5 h
Cmax/dose [27]: 331 ng/mL
Tmax [28]: 0.5 h
CLint scaled [29]: 32.3 mL/min/kg
Cmax/dose [30]: 116 ng/mL
AUC(0-inf) [31]: 761 ng·h/mL
SMILES: O=C(O)C1CCN(c2ccc3c(=O)c4cccc(Cl)c4oc3c2)C1 (racemic)
IC50 (Hepatitis B virus [9]): > 50000 nM
IC50 (Hepatitis B virus [15]): 1340 nM
